In patent US11617774B2, “Composition for preventing or treating stroke or degenerative brain disease” (UNIVERSITY-INDUSTRY COOPERATION GROUP OF KYUNG HEE …, priority 2013, dated 2023):

How the values were obtained:
[1] = system: middle cerebral artery occlusion model rats; assay: Neuroprotective effect in middle cerebral artery occlusion model (MCAo), TTC staining of brain slices; format: in vivo, Sprague-Dawley (SD) rats; settings: intravenous right after ischemia induction: Clinoleic20% 200 mg/kg, SMOFlipid20% 500 mg/kg, oleic acid 100 mg/kg, sodium oleate solution 3 mg/kg, TTC staining 24 hours after reperfusion
Procedure: 8 week-old adult male Sprague-Dawley (SD) rats, obtained from Samtako (Korea), weighing 300 g were kept in an environment to adapt to the experimental environment while providing enough feed and water. After one week of adaptation period, the animals were used for the following experiments.
In detail, a nylon suture (4-0, 22 mm) was prepared by silicone coating about 5-8 mm of the end of the suture to have 0.36 mm of diameter, and was used for experiment. The rats prepared in Experimental Example 1.1 were anesthetized with 5% of isoflurane in a mixture of gas (i.e. 70% N2O and 30% O2). A syringe was inserted in one side for blood collection and a probe was inserted in the other side to measure blood pressure. Then the blood glucose level and the blood gas level in the collected blood were measured.
Through midline neck incision, right carotid artery and external carotid artery (ECA), which are branches of external carotid artery, were separated. […]
24 hours after the reperfusion, the animals were sacrificed by cervical spine dislocation. […] The files were stored in a computer, and the infarct area (%) in each tissue slice was calculated according to the following equation 1 by using an analysis program (i.e. Optimas 6.5, Bioscan). The adjusted volume of the infarct area was calculated through following Equation 2. […]

[2] = system: middle cerebral artery occlusion model rats; assay: Safety evaluation: death rate of experimental animals in the middle cerebral artery occlusion model; format: in vivo, Sprague-Dawley (SD) rats; settings: MCAo rats, from the time of administration until sacrifice; intravenous: oleic acid 100 mg/kg, sodium oleate solution 3 mg/kg, Clinoleic20% 200 mg/kg, SMOFlipid20% 500 mg/kg
Procedure: Right after degenerative brain disease induction, death rate was calculated by counting number of dead animals in every group from the time of administration until they were sacrificed.

[3] = system: erythroclasis (hemolysis); settings: cited from earlier work
[4] = system: transient local cerebral ischemia rat model; settings: cited from earlier work

| SMILES | TTC-unstained area (neuronal cell death) of brain slices compared to the control group [1] | Death Rate (%) [2] [%] | Number of Dead Animals [2] | erythroclasis (hemolysis) in an in vitro test [3] | protective / neuroprotective efficacy [4] |
| --- | --- | --- | --- | --- | --- |
| CCCCCCCC/C=C\CCCCCCCC(=O)O [Oleic Acid, oleic acid] | less TTC-unstained area | 18.1 | 21 | incurs erythroclasis (hemolysis) | superior neuroprotective efficacy |
| CCCCCCCC/C=C\CCCCCCCC(=O)[O-].[Na+] [Sodium Oleate, sodium oleate] | less TTC-unstained area | 21.6 | 8 |  |  |
